Test results: ChEMBL document CHEMBL3526094, “Methadone N-demethylation by the common CYP2B6 allelic variant CYP2B6.6” (Drug Metab Dispos, 2013)

Experiments:
Type in all cases: ADME
Settings in all cases: human, recombinant enzyme
[1] = Drug metabolism assessed as recombinant CYP2B6.1 (unknown origin) expressed in insect cell microsomes-mediated S-2-ethyl-1,5-dimethyl-3,3-diphenylpyrrolidine formation at 0.25 to 2 uM after 10 mins high-pressure liquid chromatography analysis
[2] = Drug metabolism assessed as recombinant CYP2B6.6 (unknown origin) expressed in insect cell microsomes-mediated R-2-ethyl-1,5-dimethyl-3,3-diphenylpyrrolidine formation at 0.25 to 2 uM after 10 mins high-pressure liquid chromatography analysis
[3] = Drug metabolism assessed as recombinant CYP2B6.1 (unknown origin) expressed in insect cell microsomes-mediated R-2-ethyl-1,5-dimethyl-3,3-diphenylpyrrolidine formation at 0.25 to 2 uM after 10 mins high-pressure liquid chromatography analysis
[4] = Drug metabolism assessed as recombinant CYP2B6.6 (unknown origin) expressed in insect cell microsomes-mediated S-2-ethyl-1,5-dimethyl-3,3-diphenylpyrrolidine formation at 0.25 to 2 uM after 10 mins high-pressure liquid chromatography analysis

| SMILES | Ks [1] [µM] | Ks [2] [µM] | Ks [3] [µM] | Ks [4] [µM] |
| --- | --- | --- | --- | --- |
| CCC(=O)C(CC(C)N(C)C)(c1ccccc1)c1ccccc1 (racemic) [METHADONE] | 13 | 57 | 40 | 20 |
| CCC(=O)C(CC(C)N(C)C)(c1ccccc1)c1ccccc1 (stereo in doubt) [METHADONE] | 25 | 97 | 75 | 40 |
